Data published in patent publication US11339130B1 (Blade Therapeutics, Inc., priority 2016, dated 2022).

Assays:
[1] = system: Calpain activity in SH-SY5Y cells (SBDP-150); assay: SH-SY5Y Spectrin western blot assay (SBDP-150 breakdown product, A23187-induced); type: cell-based; conditions: Homo sapiens; Column D; SH-SY5Y cells, A23187-induced SBDP-150; read-out: SH-SY5Y Spectrin IC50
Human Calpain 2/NS1 = target: T1, Human Calpain 2/NS1 (Homo sapiens, UniProt P17655); assay: Calpain inhibition continuous fluorescence (FRET) assay, Human Calpain 2/NS1; type: biochemical; conditions: Column B; read-out: Human Calpain 2/NS1 IC50
T1 sequence (P17655 1-700): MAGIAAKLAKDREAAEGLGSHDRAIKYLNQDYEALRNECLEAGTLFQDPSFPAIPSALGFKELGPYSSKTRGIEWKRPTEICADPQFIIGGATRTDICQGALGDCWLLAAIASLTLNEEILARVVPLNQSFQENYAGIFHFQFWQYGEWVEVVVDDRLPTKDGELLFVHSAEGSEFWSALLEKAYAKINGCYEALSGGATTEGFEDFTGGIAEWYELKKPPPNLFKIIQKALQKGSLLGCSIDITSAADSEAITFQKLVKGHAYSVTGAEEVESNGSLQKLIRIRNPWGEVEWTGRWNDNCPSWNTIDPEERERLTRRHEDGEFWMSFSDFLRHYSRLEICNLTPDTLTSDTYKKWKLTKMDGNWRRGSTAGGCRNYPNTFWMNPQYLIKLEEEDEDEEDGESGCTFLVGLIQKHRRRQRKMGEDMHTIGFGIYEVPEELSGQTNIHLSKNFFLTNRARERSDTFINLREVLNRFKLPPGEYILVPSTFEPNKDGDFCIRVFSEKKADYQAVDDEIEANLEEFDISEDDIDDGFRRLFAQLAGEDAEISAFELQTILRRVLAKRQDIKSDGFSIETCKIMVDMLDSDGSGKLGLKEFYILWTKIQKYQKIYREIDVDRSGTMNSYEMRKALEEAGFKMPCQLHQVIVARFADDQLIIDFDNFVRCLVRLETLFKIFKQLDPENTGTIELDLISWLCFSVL
T1 sequence (P04632 1-268 partner): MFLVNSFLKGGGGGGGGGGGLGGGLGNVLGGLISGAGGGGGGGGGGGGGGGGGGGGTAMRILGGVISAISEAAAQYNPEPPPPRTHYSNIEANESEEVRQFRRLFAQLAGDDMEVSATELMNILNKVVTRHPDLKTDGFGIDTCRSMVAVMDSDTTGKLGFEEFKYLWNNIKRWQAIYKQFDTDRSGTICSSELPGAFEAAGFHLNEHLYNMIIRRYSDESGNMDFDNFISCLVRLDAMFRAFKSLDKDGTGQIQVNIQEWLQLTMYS
Summary of the method: (§1)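 Continuous FRET read (ex 490/em 520 nm, 10 min) of calpain 1, 2 or 9 cleaving an internally quenched 5-FAM peptide, triggered by substrate with CaCl2 after enzyme–inhibitor incubation at ambient 25 °C, pH 7.5 Tris/NaCl/DTT buffer. IC50 from initial rates (1-5 min) via 4-parameter fit.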

[2] = system: Calpain activity in SH-SY5Y cells; assay: SH-SY5Y + AMC fluorescence assay (Suc-LLVY-AMC substrate); type: cell-based; conditions: Column E, read-out: SH-SY5Y + AMC IC50
Human Calpain 1/NS1 = target: T2, Human Calpain 1/NS1 (Homo sapiens, UniProt P07384); assay: Calpain inhibition continuous fluorescence (FRET) assay, Human Calpain 1/NS1; type: biochemical; conditions: Column A; read-out: Human Calpain 1/NS1 IC50
T2 sequence (P07384 1-714): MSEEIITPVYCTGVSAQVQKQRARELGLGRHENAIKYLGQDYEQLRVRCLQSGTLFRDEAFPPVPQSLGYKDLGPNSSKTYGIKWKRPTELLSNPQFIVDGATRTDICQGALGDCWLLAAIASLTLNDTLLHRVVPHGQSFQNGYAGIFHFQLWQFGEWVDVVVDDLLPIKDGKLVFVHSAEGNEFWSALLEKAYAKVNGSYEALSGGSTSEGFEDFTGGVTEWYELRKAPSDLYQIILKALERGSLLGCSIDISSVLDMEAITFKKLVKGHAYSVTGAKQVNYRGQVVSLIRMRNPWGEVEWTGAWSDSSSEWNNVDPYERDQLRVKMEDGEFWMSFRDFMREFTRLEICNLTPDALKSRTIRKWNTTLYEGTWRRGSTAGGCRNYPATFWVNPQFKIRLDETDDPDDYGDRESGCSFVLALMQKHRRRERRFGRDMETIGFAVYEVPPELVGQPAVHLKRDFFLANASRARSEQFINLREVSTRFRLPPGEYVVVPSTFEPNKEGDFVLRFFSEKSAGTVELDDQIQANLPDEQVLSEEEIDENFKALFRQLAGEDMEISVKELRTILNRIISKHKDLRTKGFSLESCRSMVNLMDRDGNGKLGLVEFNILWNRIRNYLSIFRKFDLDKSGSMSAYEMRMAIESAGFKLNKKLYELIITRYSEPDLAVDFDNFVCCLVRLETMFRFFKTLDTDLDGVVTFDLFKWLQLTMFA
T2 sequence (P04632 1-268 partner): T1 sequence (P04632 1-268 partner)
Summary of the method: as §1

Human Calpain 9/NS1 = target: T3, Human Calpain 9/NS1 (Homo sapiens, UniProt O14815); assay: Calpain inhibition continuous fluorescence (FRET) assay, Human Calpain 9/NS1; type: biochemical; conditions: Column C; read-out: Human Calpain 9/NS1 IC50
T3 sequence (O14815 1-690): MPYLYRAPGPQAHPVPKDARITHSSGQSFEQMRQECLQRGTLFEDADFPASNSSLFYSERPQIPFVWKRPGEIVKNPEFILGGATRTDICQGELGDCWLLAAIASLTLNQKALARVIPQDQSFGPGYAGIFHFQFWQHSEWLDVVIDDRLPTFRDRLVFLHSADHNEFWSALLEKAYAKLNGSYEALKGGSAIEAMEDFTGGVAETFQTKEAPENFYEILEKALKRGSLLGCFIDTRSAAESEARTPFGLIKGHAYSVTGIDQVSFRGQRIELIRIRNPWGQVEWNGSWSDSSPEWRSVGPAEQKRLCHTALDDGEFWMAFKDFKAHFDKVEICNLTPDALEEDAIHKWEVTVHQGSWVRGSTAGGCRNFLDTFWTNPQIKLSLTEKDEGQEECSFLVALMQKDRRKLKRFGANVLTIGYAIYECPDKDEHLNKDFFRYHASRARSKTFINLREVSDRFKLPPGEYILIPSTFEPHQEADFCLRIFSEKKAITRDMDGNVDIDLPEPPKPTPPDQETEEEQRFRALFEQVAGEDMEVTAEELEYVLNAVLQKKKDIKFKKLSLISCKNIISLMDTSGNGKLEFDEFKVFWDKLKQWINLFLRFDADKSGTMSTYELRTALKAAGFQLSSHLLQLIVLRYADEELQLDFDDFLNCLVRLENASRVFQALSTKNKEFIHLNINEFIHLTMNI
T3 sequence (P04632 1-268 partner): T1 sequence (P04632 1-268 partner)
Summary of the method: as §1

| IC50 [1] | IC50 (Human Calpain 2/NS1) | IC50 [2] | IC50 (Human Calpain 1/NS1) | IC50 (Human Calpain 9/NS1) | Structure (SMILES) |
| --- | --- | --- | --- | --- | --- |
| < 10 µM | < 3 µM | < 10 µM | < 3 µM | < 3 µM | Cc1cc(C(=O)N[C@@H](Cc2ccccc2)C(=O)C(N)=O)n(-c2cccc(COCc3ccccc3)c2)n1 [Compound 230, (S)—N-(4-amino-3,4-dioxo-1-phenylbutan-2-yl)-1-(3-((benzyloxy)methyl)phenyl)-3-methyl-1H-pyrazole-5-carboxamide] |
| > 25 µM | < 3 µM | > 25 µM | < 3 µM | < 3 µM | Cc1cc(C(=O)N[C@@H](Cc2ccccc2)C(=O)C(N)=O)n(-c2cccc(COc3ccccc3)c2)n1 [Compound 231, (S)—N-(4-amino-3,4-dioxo-1-phenylbutan-2-yl)-3-methyl-1-(3-(phenoxymethyl)phenyl)-1H-pyrazole-5-carboxamide] |
| 10 to 25 µM | < 3 µM | < 10 µM | < 3 µM | < 3 µM | CCn1cc(C(=O)N[C@@H](Cc2ccccc2)C(=O)C(N)=O)c(-c2ccccc2)n1 [Compound 239, (S)—N-(4-amino-3,4-dioxo-1-phenylbutan-2-yl)-1-ethyl-3-phenyl-1H-pyrazole-4-carboxamide] |
| > 25 µM | < 3 µM | < 10 µM | < 3 µM | < 3 µM | CC(C)n1cc(C(=O)N[C@@H](Cc2ccccc2)C(=O)C(N)=O)c(-c2ccccc2)n1 [Compound 242, (S)—N-(4-amino-3,4-dioxo-1-phenylbutan-2-yl)-1-isopropyl-3-phenyl-1H-pyrazole-4-carboxamide] |
| 10 to 25 µM | < 3 µM | > 25 µM | < 3 µM | < 3 µM | CC[C@H](NC(=O)c1oc(C)nc1-c1ccccc1)C(=O)C(N)=O [Compound 243, (S)—N-(1-amino-1,2-dioxopentan-3-yl)-2-methyl-4-phenyloxazole-5-carboxamide] |
| > 25 µM | < 3 µM | < 10 µM | < 3 µM | < 3 µM | Cc1cc(C(=O)N[C@@H](Cc2ccccc2)C(=O)C(N)=O)n(-c2ccnc(C)n2)n1 [Compound 244, (S)—N-(4-amino-3,4-dioxo-1-phenylbutan-2-yl)-3-methyl-1-(2-methylpyrimidin-4-yl)-1H-pyrazole-5-carboxamide] |
| 10 to 25 µM | < 3 µM | < 10 µM | < 3 µM | < 3 µM | Cc1cc(C(=O)N[C@@H](Cc2ccccc2)C(=O)C(N)=O)n(-c2ccncn2)n1 [Compound 245, (S)—N-(4-amino-3,4-dioxo-1-phenylbutan-2-yl)-3-methyl-1-(pyrimidin-4-yl)-1H-pyrazole-5-carboxamide] |
| 10 to 25 µM | < 3 µM | < 10 µM | < 3 µM | < 3 µM | Cc1cc(C(=O)N[C@@H](Cc2ccccc2)C(=O)C(N)=O)n(-c2ccnc(Cl)n2)n1 [Compound 246, (S)—N-(4-amino-3,4-dioxo-1-phenylbutan-2-yl)-1-(2-chloropyrimidin-4-yl)-3-methyl-1H-pyrazole-5-carboxamide] |
| < 10 µM | < 3 µM | < 10 µM | < 3 µM | < 3 µM | Cc1nc(-c2ccc(F)cc2)c(C(=O)N[C@@H](Cc2ccccc2)C(=O)C(N)=O)o1 [Compound 248, (S)—N-(4-amino-3,4-dioxo-1-phenylbutan-2-yl)-4-(4-fluorophenyl)-2-methyloxazole-5-carboxamide] |
| 10 to 25 µM | < 3 µM | > 25 µM | < 3 µM | < 3 µM | NC(=O)C(=O)[C@H](Cc1ccccc1)NC(=O)c1c(-c2ccccc2)oc2ccccc12 [Compound 249, (S)—N-(4-amino-3,4-dioxo-1-phenylbutan-2-yl)-2-phenylbenzofuran-3-carboxamide] |
| > 25 µM | < 3 µM | > 25 µM | < 3 µM | < 3 µM | NC(=O)C(=O)[C@H](Cc1ccccc1)NC(=O)c1cn(CC2CC2)nc1-c1ccccc1 [Compound 251, (S)—N-(4-amino-3,4-dioxo-1-phenylbutan-2-yl)-1-(cyclopropylmethyl)-3-phenyl-1H-pyrazole-4-carboxamide] |
| > 25 µM | > 10 µM | > 25 µM | > 10 µM | > 10 µM | NC(=O)C(=O)[C@H](Cc1ccccc1)NC(=O)c1cn(C#Cc2ccccc2)c2ccccc12 [Compound 252, (S)—N-(4-amino-3,4-dioxo-1-phenylbutan-2-yl)-1-(phenylethynyl)-1H-indole-3-carboxamide] |
| 10 to 25 µM | < 3 µM | > 25 µM | < 3 µM | < 3 µM | Cc1nc(-c2ccccc2)c(C(=O)N[C@@H](CC(C)C)C(=O)C(N)=O)o1 [Compound 253, (S)—N-(1-amino-5-methyl-1,2-dioxohexan-3-yl)-2-methyl-4-phenyloxazole-5-carboxamide] |
| < 10 µM | < 3 µM | < 10 µM | < 3 µM | < 3 µM | NC(=O)C(=O)[C@H](Cc1ccccc1)NC(=O)c1oc(C(F)(F)F)nc1-c1ccccc1 [Compound 255, (S)—N-(4-amino-3,4-dioxo-1-phenylbutan-2-yl)-4-phenyl-2-(trifluoromethyl)oxazole-5-carboxamide] |
| 10 to 25 µM | < 3 µM | < 10 µM | < 3 µM | < 3 µM | Cc1n[nH]c(-c2ccccc2)c1C(=O)N[C@@H](Cc1ccccc1)C(=O)C(N)=O [Compound 257, (S)—N-(4-amino-3,4-dioxo-1-phenylbutan-2-yl)-3-methyl-5-phenyl-1H-pyrazole-4-carboxamide] |
